Where two headings read alike, the source gives them in different places.
Experiments:
[1] = test system: HIV-1 strain 92HT599; assay: Antiviral activity: p24 estimation in MT2 cells infected with HIV-1 strain 92HT599; assay type: cell-based; details: for inhibition at 0.1 µM: read-out: Antiviral activity % inhibition 100 nM; for inhibition at 1 µM: read-out: Antiviral activity % inhibition 1000 nM
Experimental: MT2 cells were infected with HIV-1 strain 92HT599 (10 TCID 50/30000 cells). The infected cells were plated at the concentration of […] cells per well in 96 well plate. Test compound was added to the micro plate in defined format with the final concentration of DMSO (vehicle) is not more than 1%. Incubation was carried out in CO2 incubator for ˜96 hours for viral infection. At the end of incubation period an aliquot from each well was taken for p24 estimation. The quantitation of p24 is an index for antiviral activity of the compound. Percent inhibition was calculated with reference to control values (vehicle controls).
p-24 estimation was carried out using Advance biosciences kit as per the procedure detailed by supplier.

[2] = Cyto-toxicity assay (MTT) in MT2 cells without virus; assay type: cell-based; details: human
Experimental: For cyto-toxicity assay the same amount of MT2 cells as in antiviral assay without virus was added to the 96 well plates. The cyto-toxicity was measured using MTT reagent in parallel with p24 estimation. The percent viability is calculated in comparison with vehicle control.

[3] = Human immunodeficiency virus 1, 100 nM, MT2 cells, HIV-1 92HT599, ~96 hours, p24
[4] = Human immunodeficiency virus 1, 1000 nM, MT2 cells, HIV-1 92HT599, ~96 hours, p24
[5] = Human immunodeficiency virus 1, MT2, 96 h

## C=C(C)[C@@H]1CC[C@]2(C(=O)N3CCCCC3)CC[C@]3(C)[C@H](CC[C@@H]4[C@@]5(C)CC[C@H](OC(=O)[C@H]6[C@@H](CC(=O)O)C6(C)C)C(C)(C)[C@@H]5CC[C@]43C)[C@@H]12 [Compound 2, 2-((1R,3S)-2,2-dimethyl-3-(((1R,3aS,5aR,5bR,7aR,9S,11aR,11bR,13aR,13bR)-5a,5b,8,8,11a-pentamethyl-3a-(piperidine-1-carbonyl)-1-(prop-1-en-2-yl)icosahydro-1H-cyclopenta[a]chrysen-9-yloxy)carbonyl)cyclopropyl)acetic acid]
[1]; [3]
  inhibition at 0.1 µM: 77%
[1]; [4]
  inhibition at 1 µM: 98%
[2]
  viability at 100 nM: 96%
  viability at 1000 nM: 95%

## CC(C)(CC(=O)O[C@H]1CC[C@]2(C)[C@H]3CC[C@@H]4[C@H]5[C@H](C6(C)CC6)CC[C@]5(C(=O)N5CCCCC5)CC[C@@]4(C)[C@]3(C)CC[C@H]2C1(C)C)C(=O)O [Compound 3, 2,2-dimethyl-4-oxo-4-((1R,3aS,5aR,5bR,7aR,9S,11aR,11bR,13aR,13bR)-5a,5b,8,8,11a-pentamethyl-1-(1-methylcyclopropyl)-3a-(piperidine-1-carbonyl)icosahydro-1H-cyclopenta[a]chrysen-9-yloxy)butanoic acid]
[1]; [3]
  inhibition at 0.1 µM: 97%
[1]; [4]
  inhibition at 1 µM: 97%
[2]
  viability at 100 nM: 100%
  viability at 1000 nM: 99%

## C=C(C)[C@@H]1CC[C@]2(c3nnc(-c4ccccc4)o3)CC[C@]3(C)[C@H](CC[C@@H]4[C@@]5(C)CC[C@H](OC(=O)[C@H]6[C@@H](CC(=O)O)C6(C)C)C(C)(C)[C@@H]5CC[C@]43C)[C@@H]12 [Example 5, 2-((1R,3S)-2,2-dimethyl-3-(((1R,3aS,5aR,5bR,7aR,9S,11aR,11bR,13aR,13bR)-5a,5b,8,8,11a-pentamethyl-3a-(5-phenyl-1,3,4-oxadiazol-2-yl)-1-(prop-1-en-2-yl)icosa hydro-1H-cyclopenta[a]chrysen-9-yloxy)carbonyl)cyclopropyl)acetic acid]
[1]; [3]
  inhibition at 0.1 µM: 49%
[1]; [4]
  inhibition at 1 µM: 92%
[2]
  viability at 100 nM: 95%
  viability at 1000 nM: 98%

## C=C(C)[C@@H]1CC[C@]2(c3nnc(-c4cccnc4)o3)CC[C@]3(C)[C@H](CC[C@@H]4[C@@]5(C)CC[C@H](OC(=O)[C@H]6[C@@H](CC(=O)O)C6(C)C)C(C)(C)[C@@H]5CC[C@]43C)[C@@H]12 [Example 6, 2-((1R,3S)-2,2-dimethyl-3-(((1R,3aS,5aR,5bR,7aR,9S,11aR,11bR,13aR,13bR)-5a,5b,8,8,11a-pentamethyl-1-(prop-1-en-2-yl)-3a-(5-(pyridin-3-yl)-1,3,4-oxadiazol-2-yl)icosahydro-1H-cyclopenta[a]chrysen-9-yloxy)carbonyl)cyclopropyl)aceticacid]
[1]; [3]
  inhibition at 0.1 µM: 85%
[1]; [4]
  inhibition at 1 µM: 92%
[2]
  viability at 100 nM: 94%
  viability at 1000 nM: 87%

## [2H]C([2H])([2H])C(N1CCN(C(=O)[C@]23CC[C@@H](C(=C)C)[C@@H]2[C@H]2CC[C@@H]4[C@@]5(C)CC[C@H](OC(=O)CC(C)(C)C(=O)O)C(C)(C)[C@@H]5CC[C@@]4(C)[C@]2(C)CC3)CC1)C([2H])([2H])[2H] [Example 7, 4-((1R,3aS,5aR,5bR,7aR,9S,11aR,11bR,13aR,13bR)-3a-(4-(1-methylethyl-2,2,2,1′,1′,1′-D6)piperazine-1-carbonyl)-5a,5b,8,8,11a-pentamethyl-1-(prop-1-en-2-yl)icosahydro-1H-cyclopenta[a]chrysen-9-yloxy)-2,2-dimethyl-4-oxobutanoic acid]
[1]; [5]
  inhibition at 0.1 µM: 98%
  inhibition at 1 µM: 97%
[2]; 100 nM, MT2 cells, MTT, read-out: Cytotoxicity % viability 100 nM
  viability at 100 nM: 99%
[2]; 1000 nM, MT2 cells, MTT, read-out: Cytotoxicity % viability 1000 nM
  viability at 1000 nM: 96%

## [2H]C([2H])([2H])C(N1CCN(C(=O)[C@H]2C[C@@H](NC(=O)[C@]34CC[C@@H](C(=C)C)[C@@H]3[C@H]3CC[C@@H]5[C@@]6(C)CC[C@H](OC(=O)CC(C)(C)C(=O)O)C(C)(C)[C@@H]6CC[C@@]5(C)[C@]3(C)CC4)C2(C)C)CC1)C([2H])([2H])[2H] [Example 8, 4-((1R,3aS,5aR,5bR,7aR,9S,11aR,11bR,13aR,13bR)-3a-((1R,3S)-3-(4-(1-methylethyl-2,2,2,1′,1′,1′-D6)piperazine-1-carbonyl)-2,2-dimethylcyclobutylcarbamoyl)-5a,5b,8,8,11a-pentamethyl-1-(prop-1-en-2-yl)icosahydro-1H-cyclopenta[a]chrysen-9-yloxy)-2,2-dimethyl-4-oxobutanoic acid]
[1]; [3]
  inhibition at 0.1 µM: 100%
[1]; [4]
  inhibition at 1 µM: 100%
[2]
  viability at 100 nM: 90%
  viability at 1000 nM: 97%

## C=C(C)[C@@H]1CC[C@]2(C(=O)N[C@@H]3C[C@H](C(=O)N4CCCCC4)C3(C)C)CC[C@]3(C)[C@H](CC[C@@H]4[C@@]5(C)CC[C@H](OC(=O)CC(C)(C)C(=O)OCOC)C(C)(C)[C@@H]5CC[C@]43C)[C@@H]12 [Example 9, 4-(1R,3aS,5aR,5bR,7aR,9S,11aR,11bR,13aR,13bR)-3a-((1R,3S)-2,2-dimethyl-3-(piperidine-1-carbonyl)cyclobutylcarbamoyl)-5a,5b,8,8,11a-pentamethyl-1-(prop-1-en-2-yl)icosahydro-1H-cyclopenta[a]chrysen-9-yl 1-methoxymethyl 2,2-dimethylsuccinate]
[1]; [3]
  inhibition at 0.1 µM: 64%
[1]; [4]
  inhibition at 1 µM: 99%
[2]
  viability at 100 nM: 82%
  viability at 1000 nM: 88%

## C=C(C)[C@@H]1CC[C@]2(C(=O)N[C@@H]3C[C@H](c4nnc(CC(C)C)o4)C3(C)C)CC[C@]3(C)[C@H](CC[C@@H]4[C@@]5(C)CC[C@H](OC(=O)CC(C)(C)C(=O)O)C(C)(C)[C@@H]5CC[C@]43C)[C@@H]12 [Example 16, 4-((1R,3aS,5aR,5bR,7aR,9S,11aR,11bR,13aR,13bR)-3a-((1R,3S)-3-(5-isobutyl-1,3,4-oxadiazol-2-yl)-2,2-dimethylcyclobutylcarbamoyl)-5a,5b,8,8,11a-pentamethyl-1-(prop-1-en-2-yl)icosahydro-1H-cyclopenta[a]chrysen-9-yloxy)-2,2-dimethyl-4-oxobutanoic acid]
[1]; [3]
  inhibition at 0.1 µM: 100%
[1]; [4]
  inhibition at 1 µM: 100%
[2]
  viability at 100 nM: 81%
  viability at 1000 nM: 79%

## C=C(C)[C@@H]1CC[C@]2(C(=O)N3CCN(CC)CC3)CC[C@]3(C)[C@H](CC[C@@H]4[C@@]5(C)CC[C@H](OC(=O)[C@H]6[C@@H](CC(=O)O)C6(C)C)C(C)(C)[C@@H]5CC[C@]43C)[C@@H]12 [Example 19, 2-((1R,3S)-3-(((1R,3aS,5aR,5bR,7aR,9S,11aR,11bR,13aR,13bR)-3a-(4-ethylpiperazine-1-carbonyl)-5a,5b,8,8,11a-pentamethyl-1-(prop-1-en-2-yl)icosahydro-1H-cyclopenta[a]chrysen-9-yloxy)carbonyl)-2,2-dimethylcyclopropyl)aceticacid]
[1]; [3]
  inhibition at 0.1 µM: 91%
[1]; [4]
  inhibition at 1 µM: 95%
[2]
  viability at 100 nM: 100%
  viability at 1000 nM: 100%

## CC(C)(CC(=O)O[C@H]1CC[C@]2(C)[C@H]3CC[C@@H]4[C@H]5[C@H](C6(C)CC6)CC[C@]5(C(=O)N5CCN(C(=O)C(C)(CO)CO)CC5)CC[C@@]4(C)[C@]3(C)CC[C@H]2C1(C)C)C(=O)O [Example 35]
[1]; [3]
  inhibition at 0.1 µM: 26%
[1]; [4]
  inhibition at 1 µM: 84%
[2]
  viability at 100 nM: 70%
  viability at 1000 nM: 81%

## CC(CO)(CO)C(=O)N1CCN(C(=O)[C@]23CC[C@@H](C4(C)CC4)[C@@H]2[C@H]2CC[C@@H]4[C@@]5(C)CC[C@H](OC(=O)[C@H]6C[C@@H](C(=O)O)C6(C)C)C(C)(C)[C@@H]5CC[C@@]4(C)[C@]2(C)CC3)CC1 [Example 36]
[1]; [3]
  inhibition at 0.1 µM: 33%
[1]; [4]
  inhibition at 1 µM: 99%
[2]
  viability at 100 nM: 77%
  viability at 1000 nM: 90%

## CC(C)(C)OC(=O)N1CCN(C(=O)[C@]23CC[C@@H](C4(C)CC4)[C@@H]2[C@H]2CC[C@@H]4[C@@]5(C)CC[C@H](OC(=O)CC(C)(C)C(=O)O)C(C)(C)[C@@H]5CC[C@@]4(C)[C@]2(C)CC3)CC1 [Example 37]
[1]; [3]
  inhibition at 0.1 µM: 30%
[1]; [4]
  inhibition at 1 µM: 99%
[2]
  viability at 100 nM: 73%
  viability at 1000 nM: 72%

## CC(C)(C)OC(=O)N1CCN(C(=O)[C@]23CC[C@@H](C4(C)CC4)[C@@H]2[C@H]2CC[C@@H]4[C@@]5(C)CC[C@H](OC(=O)[C@H]6C[C@@H](C(=O)O)C6(C)C)C(C)(C)[C@@H]5CC[C@@]4(C)[C@]2(C)CC3)CC1 [Example 38]
[1]; [3]
  inhibition at 0.1 µM: 68%
[1]; [4]
  inhibition at 1 µM: 99%
[2]
  viability at 100 nM: 85%
  viability at 1000 nM: 83%

## COCCOCCOC1CCN(C(=O)[C@]23CC[C@@H](C4(C)CC4)[C@@H]2[C@H]2CC[C@@H]4[C@@]5(C)CC[C@H](OC(=O)CC(C)(C)C(=O)O)C(C)(C)[C@@H]5CC[C@@]4(C)[C@]2(C)CC3)CC1 [Example 43, 4-(((1R,3aS,5aR,5bR,7aR,9S,11aR,11bR,13aR,13bR)-3a-(4-(2-(2-methoxyethoxyl)ethoxy)piperidine-1-carbonyl)-5a,5b,8,8,11a-pentamethyl-1-(1-methylcyclopropyl)icosahydro-1H-cyclopenta[a]chrysen-9-yl)oxy)-2,2-dimethyl-4-oxobutanoic acid]
[1]; [3]
  inhibition at 0.1 µM: 99%
[1]; [4]
  inhibition at 1 µM: 99%
[2]
  viability at 100 nM: 100%
  viability at 1000 nM: 100%
